# Patent US20230321067A1, “DOSING REGIMEN COMPRISING 3-(1-OXOISOINDOLIN-2-YL)PIPERIDINE-2,6-DIONE DERIVATIVES” (Novartis AG, priority 2020, published 2023)
# How the values were obtained:
# CYP2E1 = CYP2E1 (Homo sapiens, UniProt P05181); experiment: CYP inhibition: CYP2E1; type: in vitro ADME; conditions: I-57 concentrations of up to 100 μM
# [1] = Toxicology in rats (5-day and 4-week GLP studies); type: in vivo
# Excerpt: The non-clinical safety profile of I-57 was established in vitro, and in vivo in rats and cynomolgus monkeys in studies up to 4-weeks duration. Based on the outcome of these studies, QTc interval prolongation was identified as the principal safety signal for I-57. There were other toxicities such as diarrhea and vomiting in monkeys, and mortality, clinical signs and target organ toxicities in rats; however, these occurred at exposures far above those expected to result in clinical activity.
# Clinical signs, decreases in body weight and food consumption, and clinical pathology changes reflecting inflammation, renal and liver injury, and stress were generally evident in the pre-terminal animals. Kidney toxicity was evident in rats at doses >100 mg/kg/day and was characterized by increased weight, hematuria, proteinuria, with or without increased blood urea and creatinine, degeneration, regeneration and inflammation at 300 mg/kg/day.
# PXR = PXR (Homo sapiens, UniProt O75469); experiment: PXR reporter gene assay (CYP3A induction potential); type: cell-based
# Chain of PXR (O75469 whole entry): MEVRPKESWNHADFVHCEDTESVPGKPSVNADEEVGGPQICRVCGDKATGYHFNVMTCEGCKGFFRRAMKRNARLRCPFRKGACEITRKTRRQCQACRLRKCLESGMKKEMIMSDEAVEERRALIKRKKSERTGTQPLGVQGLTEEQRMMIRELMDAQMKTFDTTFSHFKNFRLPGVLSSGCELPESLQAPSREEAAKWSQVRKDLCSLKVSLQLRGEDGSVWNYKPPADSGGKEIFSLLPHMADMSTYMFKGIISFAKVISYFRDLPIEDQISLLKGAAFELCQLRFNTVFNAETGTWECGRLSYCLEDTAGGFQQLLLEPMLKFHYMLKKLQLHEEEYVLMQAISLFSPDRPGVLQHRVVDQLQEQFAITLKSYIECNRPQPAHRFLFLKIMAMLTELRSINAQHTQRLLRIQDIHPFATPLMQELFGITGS
# Excerpt: Based on a PXR reporter gene assay, I-57's induction potential for CYP3A appears to be low.
# IKZF2 = IKZF2 (Homo sapiens, UniProt Q96SW2+Q9UKS7); experiment: IKZF2 in human Tregs (tumor, blood) by flow cytometry, hPBMC AdT model; type: in vivo, NSG mice with human PBMCs; parameters: endogenous in cells; host or cells: human lymphocytes (CD4+FOXP3+ Tregs; total tumor-infiltrating lymphocytes) from healthy-donor PBMC transferred into NSG mice
# Chain of IKZF2 (Q9UKS7 whole entry): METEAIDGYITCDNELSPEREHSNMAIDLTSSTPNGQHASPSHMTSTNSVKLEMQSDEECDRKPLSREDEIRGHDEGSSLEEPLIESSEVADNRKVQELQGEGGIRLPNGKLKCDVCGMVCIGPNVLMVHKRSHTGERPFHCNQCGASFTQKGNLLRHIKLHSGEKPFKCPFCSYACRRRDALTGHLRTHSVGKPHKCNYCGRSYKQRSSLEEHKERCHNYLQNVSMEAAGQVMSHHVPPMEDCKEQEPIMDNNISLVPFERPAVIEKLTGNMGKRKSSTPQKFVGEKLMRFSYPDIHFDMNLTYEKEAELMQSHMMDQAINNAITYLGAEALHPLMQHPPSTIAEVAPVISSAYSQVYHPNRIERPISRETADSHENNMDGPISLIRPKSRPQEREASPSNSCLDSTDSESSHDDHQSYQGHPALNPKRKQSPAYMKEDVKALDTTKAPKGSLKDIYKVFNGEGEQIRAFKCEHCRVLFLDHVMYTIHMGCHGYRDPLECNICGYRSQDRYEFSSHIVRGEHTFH
# Chain of IKZF2 (Q96SW2 whole entry): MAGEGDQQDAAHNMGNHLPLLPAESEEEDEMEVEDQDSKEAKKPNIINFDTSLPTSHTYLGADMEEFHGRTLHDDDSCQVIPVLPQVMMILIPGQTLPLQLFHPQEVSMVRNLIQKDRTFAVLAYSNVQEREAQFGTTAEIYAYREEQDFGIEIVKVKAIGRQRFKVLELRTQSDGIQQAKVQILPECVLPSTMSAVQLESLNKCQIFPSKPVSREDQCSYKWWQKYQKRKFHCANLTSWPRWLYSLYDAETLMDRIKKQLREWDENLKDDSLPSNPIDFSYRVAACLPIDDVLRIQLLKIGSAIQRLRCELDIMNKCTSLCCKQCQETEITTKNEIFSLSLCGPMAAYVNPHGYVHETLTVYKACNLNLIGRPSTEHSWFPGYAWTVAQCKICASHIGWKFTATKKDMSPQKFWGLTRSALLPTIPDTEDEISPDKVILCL
# Chain of IKZF2 (Q16531 whole entry partner): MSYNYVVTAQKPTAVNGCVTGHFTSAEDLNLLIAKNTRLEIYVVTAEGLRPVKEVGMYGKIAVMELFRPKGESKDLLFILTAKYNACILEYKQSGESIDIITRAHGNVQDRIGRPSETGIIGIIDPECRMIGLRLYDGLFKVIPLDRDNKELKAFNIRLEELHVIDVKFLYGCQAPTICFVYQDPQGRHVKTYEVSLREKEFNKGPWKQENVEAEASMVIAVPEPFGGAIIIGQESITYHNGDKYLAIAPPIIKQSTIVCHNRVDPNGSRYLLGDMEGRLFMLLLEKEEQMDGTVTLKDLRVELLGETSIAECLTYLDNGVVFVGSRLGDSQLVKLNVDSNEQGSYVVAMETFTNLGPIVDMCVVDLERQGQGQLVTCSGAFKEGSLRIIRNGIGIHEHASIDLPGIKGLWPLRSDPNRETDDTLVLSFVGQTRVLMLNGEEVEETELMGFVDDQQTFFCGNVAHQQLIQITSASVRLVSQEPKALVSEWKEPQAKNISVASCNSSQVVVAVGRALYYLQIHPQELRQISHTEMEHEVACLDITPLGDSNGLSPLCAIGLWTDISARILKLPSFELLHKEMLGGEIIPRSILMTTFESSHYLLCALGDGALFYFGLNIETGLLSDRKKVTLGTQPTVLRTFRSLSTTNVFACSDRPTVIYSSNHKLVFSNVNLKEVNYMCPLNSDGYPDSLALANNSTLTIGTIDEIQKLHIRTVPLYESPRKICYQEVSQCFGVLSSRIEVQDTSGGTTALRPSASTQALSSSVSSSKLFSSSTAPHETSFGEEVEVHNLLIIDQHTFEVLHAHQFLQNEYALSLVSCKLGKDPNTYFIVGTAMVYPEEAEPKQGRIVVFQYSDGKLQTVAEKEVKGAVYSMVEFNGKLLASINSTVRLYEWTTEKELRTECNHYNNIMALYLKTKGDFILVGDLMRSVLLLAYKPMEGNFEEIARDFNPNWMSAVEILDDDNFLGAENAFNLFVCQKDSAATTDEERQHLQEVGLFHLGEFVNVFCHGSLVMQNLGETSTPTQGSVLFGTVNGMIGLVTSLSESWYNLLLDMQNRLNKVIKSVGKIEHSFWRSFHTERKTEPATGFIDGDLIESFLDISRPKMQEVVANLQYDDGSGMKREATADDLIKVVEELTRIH
# Procedure: (§1) The PK/PD relationship of I-57 was examined in the hPBMC AdT model system. Human PBMCs were adoptively transferred into female NSG mice harboring established MDA-MB231 xenografts (FIG. 6). This model was selected based on the observation that IKZF2 positive Tregs (CD4+FOXP3+) were readily identifiable in peripheral blood and infiltrated in the tumor xenografts.
# The impact of I-57 on IKZF2 protein expression in human Tregs in the periphery and infiltrated in MDA-MB231 xenografts was assessed via flow cytometry at multiple time points after the last I-57 dose. […] Maximum effects were generally observed 4-16 h post dose. At a given dose level, the magnitude and duration of IKZF2 reduction in Tregs was generally consistent across tissues (tumor, spleen and blood).
# Based on the data from this hPBMC AdT mouse model, unbound I-57 (73% percent plasma binding in the mouse) exposures (AUCinf) of 7, 30, 157 and 3474 ng*h/mL are required to achieve the reduction of IKZF2 positivity (via flow cytometry) in tumor Tregs by 31, 43, 56, and 75%, respectively. The relationship between the magnitude and duration of I-57-mediated IKZF2 degradation and subsequent modulation of therapeutically relevant downstream biology is not yet well understood.
# CYP2C19 = CYP2C19 (Homo sapiens, UniProt P33261); experiment: Time-dependent CYP inhibition: CYP2C19; type: in vitro ADME; conditions: I-57 concentrations of up to 100 μM
# Chain of CYP2C19 (P33261 whole entry): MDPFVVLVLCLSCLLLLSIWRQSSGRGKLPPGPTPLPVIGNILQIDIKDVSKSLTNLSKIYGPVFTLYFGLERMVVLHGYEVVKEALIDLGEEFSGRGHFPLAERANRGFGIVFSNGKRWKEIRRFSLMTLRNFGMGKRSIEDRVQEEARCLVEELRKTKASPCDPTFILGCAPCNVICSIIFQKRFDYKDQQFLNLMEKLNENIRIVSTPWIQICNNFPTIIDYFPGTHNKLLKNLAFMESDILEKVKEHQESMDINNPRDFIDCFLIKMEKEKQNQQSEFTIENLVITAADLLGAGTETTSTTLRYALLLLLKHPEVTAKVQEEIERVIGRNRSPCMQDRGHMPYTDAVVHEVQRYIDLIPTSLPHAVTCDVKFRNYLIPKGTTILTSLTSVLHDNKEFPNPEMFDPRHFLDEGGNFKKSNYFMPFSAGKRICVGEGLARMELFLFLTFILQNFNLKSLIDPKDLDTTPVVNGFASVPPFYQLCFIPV
# [2] = Repeated oral dose PK in MDA-MB231 xenograft human PBMC adoptive transfer model; type: in vivo, NSG mice; conditions: hPBMC AdT mouse
# Procedure: as §1
# Mice were administered I-57 daily for 14 consecutive days at the doses shown. Longitudinal I-57 plasma concentrations were assessed (Table 14).
# [3] = female, NSG, mouse, plasma, po, 0.3 mg/kg, unbound, post 1st dose, p.o. 0.3 mg/kg daily
# [4] = female, NSG, mouse, plasma, po, 0.3 mg/kg, unbound, post 13th dose, p.o. 0.3 mg/kg daily
# [5] = female, NSG, mouse, plasma, po, 1 mg/kg, unbound, post 1st dose, p.o. 1 mg/kg daily
# [6] = female, NSG, mouse, plasma, po, 1 mg/kg, unbound, post 13th dose, p.o. 1 mg/kg daily
# [7] = female, NSG, mouse, plasma, po, 3 mg/kg, unbound, post 1st dose, p.o. 3 mg/kg daily
# [8] = female, NSG, mouse, plasma, po, 3 mg/kg, unbound, post 13th dose, p.o. 3 mg/kg daily
# [9] = female, NSG, mouse, plasma, po, 30 mg/kg, unbound, post 1st dose, p.o. 30 mg/kg daily
# [10] = female, NSG, mouse, plasma, po, 30 mg/kg, unbound, post 13th dose, p.o. 30 mg/kg daily
# Chain of CYP2E1 (P05181 whole entry): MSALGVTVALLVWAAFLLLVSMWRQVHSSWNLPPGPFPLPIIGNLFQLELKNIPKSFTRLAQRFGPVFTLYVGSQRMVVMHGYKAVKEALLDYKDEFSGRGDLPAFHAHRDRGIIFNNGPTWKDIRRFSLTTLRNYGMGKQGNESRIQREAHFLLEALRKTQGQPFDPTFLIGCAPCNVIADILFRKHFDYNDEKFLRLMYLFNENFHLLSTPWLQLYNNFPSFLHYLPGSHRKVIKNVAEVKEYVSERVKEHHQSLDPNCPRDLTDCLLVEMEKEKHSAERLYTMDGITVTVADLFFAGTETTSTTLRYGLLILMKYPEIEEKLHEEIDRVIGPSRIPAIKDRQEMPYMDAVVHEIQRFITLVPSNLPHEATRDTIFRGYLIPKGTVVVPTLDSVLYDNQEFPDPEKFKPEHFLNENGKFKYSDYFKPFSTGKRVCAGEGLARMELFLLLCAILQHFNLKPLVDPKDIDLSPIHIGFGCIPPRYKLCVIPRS
compound,measurement,setting,value
"O=C1CCC(N2Cc3cc(C4CCN(Cc5ccccc5)CC4)ccc3C2=O)C(=O)N1 (centres unmarked) [Compound I-57, 3-(5-(1-benzylpiperidin-4-yl)-1-oxoisoindolin-2-yl)piperidine-2,6-dione]",inhibition of CYP2E1,CYP2E1,very little and no inhibition
same,reversibility of findings,"[1]; rat, in vivo",fully reversed or showed ongoing recovery
same,stomach findings,"[1]; rat, in vivo, 300 mg/kg/day","mucosal hyperplasia, inflammation and degeneration in the stomach"
same,urinary bladder findings,"[1]; rat, in vivo, 300 mg/kg/day",Degenerative changes were present in the urinary bladder
same,dose at which kidney toxicity was evident,[1]; rats,> 100 mg/kg/day
same,dose at which mortality occurred,"[1]; rats, females",> 300 mg/kg/day
same,dose at which mortality occurred,"[1]; rats, males",1000 mg/kg
same,induction potential for CYP3A,PXR,low
same,reduction of IKZF2 positivity in tumor Tregs,"IKZF2; flow cytometry, unbound exposure (AUCinf) 7 ng*h/mL",31%
same,reduction of IKZF2 positivity in tumor Tregs,"IKZF2; flow cytometry, unbound exposure (AUCinf) 30 ng*h/mL",43%
same,reduction of IKZF2 positivity in tumor Tregs,"IKZF2; flow cytometry, unbound exposure (AUCinf) 157 ng*h/mL",56%
same,reduction of IKZF2 positivity in tumor Tregs,"IKZF2; flow cytometry, unbound exposure (AUCinf) 3474 ng*h/mL",75%
same,time of maximum effects on IKZF2 positive Tregs,"IKZF2; post dose, hPBMC AdT model",4 to 16 h
same,IKZF2 degradation (reduction of the percentage of IKZF2 positive Tregs),"IKZF2; tumor and peripheral blood, after 14 daily doses, flow cytometry",robust dose and exposure-dependent IKZF2 degradation
same,time-dependent inhibition of CYP2C19,CYP2C19,no apparent time-dependent inhibition
same,phototoxic potential,Phototoxic potential,no genotoxic or phototoxic potential
same,AUC(0-inf),[2]; [3],7.1 ng·h/mL
same,Cmax,[2]; [3],2.9 ng/mL
same,AUC(0-inf),[2]; [4],7.5 ng·h/mL
same,Cmax,[2]; [4],1.1 ng/mL
same,AUC(0-inf),[2]; [5],30 ng·h/mL
same,Cmax,[2]; [5],8.8 ng/mL
same,AUC(0-inf),[2]; [6],20 ng·h/mL
same,Cmax at 13 days,[2]; [6],4.6 ng/mL
same,AUC(0-inf),[2]; [7],157 ng·h/mL
same,Cmax,[2]; [7],53 ng/mL
same,AUC(0-inf),[2]; [8],92 ng·h/mL
same,Cmax,[2]; [8],27 ng/mL
same,AUC(0-inf),[2]; [9],3470 ng·h/mL
same,Cmax,[2]; [9],1250 ng/mL
same,AUC(0-inf),[2]; [10],4270 ng·h/mL
same,Cmax,[2]; [10],1300 ng/mL
same,dose proportionality of AUC and Cmax,[2]; between 3 and 30 mg/kg,over-dose proportional increase
same,change in exposure by repeated dosing,[2]; daily dosing,No significant increase in exposure
same,dose proportionality of AUC and Cmax,[2]; from 0.3 to 3 mg/kg,dose proportional increase
